Experimental data as given in patent US20260209196A1, “AMIDINOUREA DERIVATIVES AND THEIR USE IN THE TREATMENT OF CANCER” (UNIVERSITE COTE D'AZUR, priority 2022, published 2026).
Read-outs that look alike come from different tables or passages of the source.

Columns and labels:
Assay type in all cases: cell-based
[1] = system: A375; assay: Cell viability of A375 melanoma cells by Trypan Blue exclusion; conditions: for viability at 5 µM: Homo sapiens, A-375, viable cells as mean percentage of control cells ± SEM, N=3
Experimental: The BRAFV600E mutant melanoma line A375 (CRL-1619) was purchased from ATCC (Manassas, VA, USA). The A375 were maintained in glutamine-containing DMEM supplemented with 10% heat-inactivated fetal bovine serum, penicillin (100 units/ml) and streptomycin ([…]).
(§1) Cell viability was measured by the Trypan Blue exclusion method. Briefly, cells washed with PBS were harvested by a 3-minute incubation in 0.05% trypsin before neutralization with serum containing medium. An aliquot of the cell suspension was then mixed 1:1 with a 0.4% Trypan blue solution and viable cells were counted within 5 minutes on Kova slides under an optical microscope. Results are expressed as the mean percentage of control cells±SEM. N=3

[2] = system: normal human melanocytes; assay: Toxicity on normal human melanocytes by Trypan blue counting; conditions: FIG. 3
Experimental: Normal human melanocytes were obtained from the foreskins of Caucasian children and grown in MCDB 153 medium supplemented with 2% fetal calf serum, 0.5 mg/ml hydrocortisone, 5 mg/ml insulin, 16 nM phorbol-12 myristate 13-acetate, 1 ng/ml basic fibroblast growth factor, 20 mg/ml bovine pituitary extract, […], and penicillin/streptomycin (100 U/ml/[…]). All cells were maintained in humidified incubators at 37° C. with 5% CO2.
as §1

[3] = system: NCI 60 cell panel; assay: DTP-NCI assay (NCI 60 cell screen, single high dose); conditions: Homo sapiens, 48 h; single high dose 10^-5 M, full NCI 60 cell panel; growth relative to no-drug control and to time zero number of cells; read-out: DTP-NCI (mean of the percent growth of treated cells)
Experimental: The effect of 10 μM of MTF504 was monitored on a panel 60 cell lines representing nine distinct tumour types: leukemia, colon, lung, central nervous system, renal, melanoma, ovarian, breast and prostate. Briefly, the compound was sent to the US National Cancer Institute where its antineoplastic effects were monitored on the panel of cell lines after 48 hours of treatment following a standardized protocol.
All compounds submitted to the NCI 60 Cell screen are tested initially at a single high dose (10^-5 M) in the full NCI 60 cell panel. The results are reported as a mean of the percent growth of treated cells. The number reported is growth relative to the no-drug control, and relative to the time zero number of cells. This allows detection of […].

[4] = 24 h, read-out: Viab A375 5 μM/24 h
[5] = 48 h, read-out: Viab A375 5 μM/48 h

For `N=C(NC(=O)Nc1ccccc1Cl)Nc1nc2ccccc2s1` [MTF504, N-benzo[d]thiazol-2-yl-N″-(2-chloroaniline-carbonyl)-guanidine], the viability at 5 µM [1, 4] was 26%, the viability at 5 µM [1, 5] was 7.1% and the “decrease of melanoma cell viability versus CRO15 and MTF319” value ([1]; after 24 hours of treatment, FIG. 5) was “more efficient than previously reported compounds”. The “toxicity on normal human melanocytes” value [2] was “absence of toxicity” and the activity at 10 µM [3] was 25.4%.

For `Cc1cccc(NC(=O)NC(=N)Nc2nc(C)c(C)s2)c1` [MTF510, 4,5-dimethylthiazol-2-yl-N″-(3-methylaniline-carbonyl)-guanidine], the viability at 5 µM [1, 4] was 56.5%, the viability at 5 µM [1, 5] was 26.1% and the activity at 10 µM [3] was 47.2%.
